For assay [1], the target named is T1, BTK (Rattus norvegicus, UniProt Q5S255).
T1 construct: Unoccupied BTK, as well as total BTK relative protein levels were determined in lysates of selected tissues; from tissue; host or cells: rat spleen, blood, lymph nodes, lung
Description: BTK occupancy ex vivo immunoassay in rat tissues after oral dosing. The protocol:
The in vivo PD effects of an irreversible BTK inhibitor like compound (I) are determined by the extent and duration of covalent BTK occupancy by the inhibitor. BTK occupancy after treatment with Compound of Formula (I) (also referenced to as Compound (I)) was measured in an ex vivo immunoassay. The fraction of unoccupied BTK protein was assayed after in vitro incubation with a covalent biotinylated BTK probe, since compound (I) and the probe bind to BTK in a mutually exclusive manner. Unoccupied BTK, as well as total BTK relative protein levels were determined in lysates of selected tissues and levels of unoccupied BTK were normalized to total BTK protein levels in the same samples.
From the experimental data it was apparent that a short transient systemic exposure of compound (I) is sufficient to achieve full BTK occupancy in several tissues at low oral doses of 1-3 mg/kg. […] This very low and transient systemic exposure is consistent with the PK/PD model typical of irreversible inhibitors.
The duration of BTK occupancy was determined in rats and mice after single oral dose of compound (I) for spleen, blood, lymph nodes and lung. […] The longer persistence of BTK occupancy in blood has been reported before (Advani et al 2013, J Clin Onc; 31(1):88-94).

The target in assay [2] is T2, BTK (Homo sapiens, UniProt Q06187).
T2 construct: from tissue; host or cells: human whole (peripheral) blood of healthy volunteers and atopic subjects
Description: BTK occupancy in human whole blood (free and total BTK, ELISA on MSD platform). The class given is in vivo. The protocol:
Pharmacodynamics (PD) was characterized by assessing target occupancy and distal pathway inhibition. Measurements of BTK occupancy in human whole blood (derived as ratio of free and total BTK), served as direct marker of therapeutic target engagement.
Compound of formula (I) is an irreversible inhibitor of BTK, the extent and duration of BTK occupancy were determined.
The relationship between dose and pharmacodynamics was characterized by measurements of BTK occupancy in human blood (derived as ratio of free and total BTK), a direct marker of therapeutic target engagement. BTK occupancy was determined for single ascending doses ranging 0.5 to 400 mg, for q.d. multiple ascending doses ranging from of 10 mg and 400 mg, and for b.i.d. multiple ascending doses of 100 mg and 200 mg.
A general note: In an ELISA, binding on a coated surface is turned into a signal by an enzyme label.

T1 sequence (Q5S255 1-660): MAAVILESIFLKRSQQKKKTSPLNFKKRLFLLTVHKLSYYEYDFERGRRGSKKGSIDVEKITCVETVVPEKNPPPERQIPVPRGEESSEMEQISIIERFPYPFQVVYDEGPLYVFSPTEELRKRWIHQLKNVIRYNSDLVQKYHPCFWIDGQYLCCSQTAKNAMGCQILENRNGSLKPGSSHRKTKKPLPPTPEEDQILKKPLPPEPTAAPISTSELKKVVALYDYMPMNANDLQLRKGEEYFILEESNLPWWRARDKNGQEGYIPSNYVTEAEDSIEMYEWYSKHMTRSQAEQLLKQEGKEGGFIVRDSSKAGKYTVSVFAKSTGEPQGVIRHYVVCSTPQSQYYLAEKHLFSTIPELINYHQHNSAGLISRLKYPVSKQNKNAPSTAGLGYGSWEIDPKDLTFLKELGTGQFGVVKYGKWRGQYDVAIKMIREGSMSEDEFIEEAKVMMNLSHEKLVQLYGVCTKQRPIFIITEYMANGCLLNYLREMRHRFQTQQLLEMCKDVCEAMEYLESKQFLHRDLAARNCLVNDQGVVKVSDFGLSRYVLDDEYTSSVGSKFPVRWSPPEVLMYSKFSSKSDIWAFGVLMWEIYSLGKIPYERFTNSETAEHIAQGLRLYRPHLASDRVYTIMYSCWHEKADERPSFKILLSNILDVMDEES
T2 sequence (Q06187 whole entry): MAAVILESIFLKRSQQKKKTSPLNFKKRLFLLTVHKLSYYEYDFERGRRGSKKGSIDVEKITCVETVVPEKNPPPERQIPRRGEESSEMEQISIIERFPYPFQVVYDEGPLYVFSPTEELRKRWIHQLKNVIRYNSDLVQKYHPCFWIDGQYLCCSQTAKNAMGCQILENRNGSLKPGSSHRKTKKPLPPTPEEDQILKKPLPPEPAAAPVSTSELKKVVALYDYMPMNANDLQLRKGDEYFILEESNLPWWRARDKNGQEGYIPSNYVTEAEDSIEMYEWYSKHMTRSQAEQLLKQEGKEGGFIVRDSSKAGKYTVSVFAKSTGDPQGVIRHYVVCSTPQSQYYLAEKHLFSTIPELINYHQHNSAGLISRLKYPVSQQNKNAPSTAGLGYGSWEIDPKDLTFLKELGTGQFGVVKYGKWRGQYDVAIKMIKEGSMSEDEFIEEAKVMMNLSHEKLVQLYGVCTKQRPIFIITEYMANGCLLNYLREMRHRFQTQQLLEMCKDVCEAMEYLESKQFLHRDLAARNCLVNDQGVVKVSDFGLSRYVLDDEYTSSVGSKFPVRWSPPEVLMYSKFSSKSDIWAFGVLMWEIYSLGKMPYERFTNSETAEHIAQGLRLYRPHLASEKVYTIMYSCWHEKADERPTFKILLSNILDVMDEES

`C=CC(=O)N(C)CCOc1c(N)ncnc1-c1cc(F)cc(NC(=O)c2ccc(C3CC3)cc2F)c1C` [Compound (I), N-(3-(6-Amino-5-(2-(N-methylacrylamido)ethoxy)pyrimidin-4-yl)-5-fluoro-2-methylphenyl)-4-cyclopropyl-2-fluorobenzamide]: in assay [1] (female rats, single oral dose 3 mg/kg), the “spleen BTK occupancy” value is reported as “full”. Also, the “BTK occupancy half-life in spleen” value in assay [1] (rat spleen, single oral dose, estimated) was “approximately 5 hours”. Also, in assay [1] (rats, single oral dose), the “BTK occupancy half-life in blood” value is reported as “approximately 87 hours”. Also, the “BTK occupancy in blood” value in assay [2] (10 mg q.d.) is reported as “nearly complete”. In assay [2] (blood), the “duration of BTK occupancy in blood” value was over 24 h. In addition, in assay [2] (blood, after single dose), the “median BTK turnover T1/2” value is recorded as “about 48 hours” and the “time to refresh BTK protein pool to pre-dose levels” value is “about 10 days”. In addition, in assay [2] (blood, single doses of 30 mg and higher), the “duration of sustained BTK occupancy” value is given as over 24 h. Moreover, the “time of peak target (BTK) occupancy post dose” value in assay [2] (peripheral blood) was 0.5 h.

Values taken from patent publication US12419889B2, “Methods of treating chronic spontaneous urticaria using a bruton's tyrosine kinase inhibitor” (NOVARTIS AG, priority 2019, dated 2025).
